Reference: patent US20240239755A1, “SUBSTITUTED PYRIDAZINONES, SALTS OR N-OXIDES THEREOF AND THEIR USE AS HERBICIDALLY ACTIVE SUBSTANCES” (Bayer Aktiengesellschaft, priority 2021, published 2024)

How the values were obtained:
Type in all cases: in vivo
[1] = tested on: Echinochloa crus-galli (ECHCG); assay: Herbicidal post-emergence action, 1280 g/ha (Table B3); details: visual assessment after ca. 3 weeks vs untreated controls
Description: (§1) Seeds of mono- and dicotyledonous weed plants were sown in plastic pots (double sowings with one species of mono- and one species of dicotyledonous weed plants per pot), in sandy loam, covered with soil and grown under controlled growth conditions. 2 to 3 weeks after sowing, the test plants were sprayed in the single-leaf stage. The compounds according to the invention, formulated in the form of wettable powders (WP) or as emulsifiable concentrates (EC), were sprayed onto the green plant parts as an aqueous suspension or as an emulsion, with the addition of 0.5% of an additive, at an application rate of 600 litres of water per hectare (converted). The test plants were placed in the greenhouse for ca. 3 weeks under optimum growth conditions, and then the effect of the preparations was assessed visually in comparison with untreated controls (herbicidal effect in percent (%): 100% effect=plants have died, 0% effect=as control plants). Tables B1 to B11 below, show the effects of selected compounds of the general formula (I) according to Table 1 on various harmful plants using an application rate corresponding to 1280 g/ha obtained by the experimental procedure mentioned above.

Poa annua (POAAN) = assay: Herbicidal pre-emergence action, 1280 g/ha (Table A7); details: visual grading after ca. 3 weeks vs untreated controls
Description: (§2) Seeds of mono- and dicotyledonous weed plants were sown in plastic pots (double sowings with one species of mono- and one species of dicotyledonous weed plants per pot), in sandy loam, and covered with soil. The compounds according to the invention, formulated in the form of wettable powders (WP) or as emulsifiable concentrates (EC), were applied to the surface of the covering soil as an aqueous suspension or as an emulsion, with the addition of 0.5% of an additive, at an application rate of 600 litres of water per hectare (converted). Following treatment, the pots were placed in a greenhouse and kept under optimum growth conditions for the test plants. The visual grading of the damage to the test plants was carried out after ca. 3 weeks in comparison to untreated controls (herbicidal effect in percent (%): 100% effect=plants have died, 0% effect=as control plants). Tables A1 to A11 below, show the effects of selected compounds of the general formula (I) according to Table 1 on various harmful plants and an application rate corresponding to 1280 g/ha obtained by the experimental procedure mentioned above.

Stellaria media (STEME) [2] = assay: Herbicidal pre-emergence action, 1280 g/ha (Table A9); details: visual grading after ca. 3 weeks vs untreated controls
Method in brief: (§3)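 Weed seeds sown in sandy loam pots and covered with soil; compounds formulated as WP or EC applied to the soil surface in water with 0.5% additive at 600 L water/ha. Pots kept in a greenhouse under optimum growth conditions; damage visually graded after ca. 3 weeks versus untreated controls (0% = as control, 100% = plants dead).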

Stellaria media (STEME) [3] = assay: Herbicidal pre-emergence action, 320 g/ha, STEME; details: visual grading after ca. 3 weeks
Method in brief: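 Weed seeds sown in sandy loam pots; WP or EC formulations applied pre-emergence to the covering soil surface at 320 g/ha with 0.5% additive in 600 L water/ha. Greenhouse growth; visual damage scored after ca. 3 weeks versus untreated controls (100% = plants died, 0% = as control).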

Stellaria media (STEME) [4] = assay: Herbicidal post-emergence action, 1280 g/ha (Table B9); details: visual assessment after ca. 3 weeks vs untreated controls
Method in brief: (§4)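 Post-emergence greenhouse pot test: weeds in sandy loam sprayed at single-leaf stage, 2–3 weeks after sowing, with WP or EC formulations plus 0.5% additive at 600 L water/ha. Effect scored visually ca. 3 weeks later versus untreated controls, 0% = as control, 100% = plants dead.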

[5] = tested on: Abutilon theophrasti (ABUTH); assay: Herbicidal post-emergence action, 1280 g/ha (Table B1); details: visual assessment after ca. 3 weeks vs untreated controls
Method in brief: as §4

[6] = tested on: Amaranthus retroflexus (AMARE); assay: Herbicidal post-emergence action, 1280 g/ha, AMARE; details: visual grading vs untreated controls
Method in brief: (§5)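 Pot-grown weeds in sandy loam sprayed post-emergence at the single-leaf stage, 2–3 weeks after sowing, with WP or EC formulations plus 0.5% additive in 600 L water/ha at 1280 g/ha. After ca. 3 weeks in the greenhouse, damage scored visually as % effect versus untreated controls (100% = plants dead).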

[7] = tested on: Matricaria inodora (MATIN); assay: Herbicidal pre-emergence action, 1280 g/ha (Table A6); details: visual grading after ca. 3 weeks vs untreated controls
Method in brief: as §3

[8] = tested on: Abutilon theophrasti (ABUTH); assay: Herbicidal post-emergence action, 320 g/ha, ABUTH; details: visual grading after ca. 3 weeks
Method in brief: (§6)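 Weeds were sown in sandy loam pots and sprayed post-emergence at the single-leaf stage, 2 to 3 weeks after sowing, with WP or EC formulations in water plus 0.5% additive at 600 L/ha. Visual % injury versus untreated controls was scored after ca. 3 weeks in the greenhouse.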

Lolium rigidum (LOLRI) [9] = assay: Herbicidal pre-emergence action, 1280 g/ha (Table A5); details: visual grading after ca. 3 weeks vs untreated controls
Method in brief: as §3

[10] = tested on: Amaranthus retroflexus (AMARE); assay: Herbicidal post-emergence action, 320 g/ha, AMARE; details: visual grading after ca. 3 weeks
Method in brief: as §6

[11] = tested on: Matricaria inodora (MATIN); assay: Herbicidal post-emergence action, 1280 g/ha (Table B6); details: visual assessment after ca. 3 weeks vs untreated controls
Method in brief: as §4

Lolium rigidum (LOLRI) [12] = assay: Herbicidal pre-emergence action, 320 g/ha (Table C2); details: visual grading after ca. 3 weeks vs untreated controls
Description: as §2, with “Tables C1” for “Tables A1”, “to C6” for “to A11”, “plants using” for “plants and”, “to 320” for “to 1280”

Stellaria media (STEME) [13] = assay: Herbicidal post-emergence action, 320 g/ha, STEME; details: visual grading after ca. 3 weeks
Method in brief: as §6

Lolium rigidum (LOLRI) [14] = assay: Herbicidal post-emergence action, 1280 g/ha (Table B5); details: visual assessment after ca. 3 weeks vs untreated controls
Description: as §1

Kochia scoparia (KCHSC) [15] = assay: Herbicidal pre-emergence action, 1280 g/ha (Table A4); details: visual grading after ca. 3 weeks vs untreated controls
Description: as §2

[16] = tested on: Amaranthus retroflexus (AMARE); assay: Herbicidal pre-emergence action, 1280 g/ha (Table A11); details: visual grading after ca. 3 weeks vs untreated controls
Method in brief: as §3

Veronica persica (VERPE) [17] = assay: Herbicidal post-emergence action, 1280 g/ha, VERPE; details: visual grading vs untreated controls
Method in brief: as §5

[18] = tested on: Abutilon theophrasti (ABUTH); assay: Herbicidal pre-emergence action, 1280 g/ha (Table A1); details: visual grading after ca. 3 weeks vs untreated controls
Description: as §2

Kochia scoparia (KCHSC) [19] = assay: Herbicidal post-emergence action, 1280 g/ha (Table B4); details: visual assessment after ca. 3 weeks vs untreated controls
Method in brief: as §4

Kochia scoparia (KCHSC) [20] = assay: Herbicidal post-emergence action, 320 g/ha, KCHSC; details: visual grading after ca. 3 weeks
Description: as §1, with “plants).” for “plants). Tables B1 to B11 below, show the effects of selected compounds of the general formula (I) according to Table 1 on various harmful plants using an application rate corresponding to 1280 g/ha obtained by the experimental procedure mentioned above.”
(§7) Tables D1 to D8 below, show the effects of selected compounds of the general formula (I) according to Table 1 on various harmful plants using an application rate corresponding to 320 g/ha obtained by the experimental procedure mentioned above.

Setaria viridis (SETVI) [21] = assay: Herbicidal post-emergence action, 1280 g/ha (Table B8); details: visual assessment after ca. 3 weeks vs untreated controls
Description: as §1

Setaria viridis (SETVI) [22] = assay: Herbicidal pre-emergence action, 1280 g/ha (Table A8); details: visual grading after ca. 3 weeks vs untreated controls
Description: as §2

[23] = tested on: Matricaria inodora (MATIN); assay: Herbicidal post-emergence action, 320 g/ha, MATIN; details: visual grading after ca. 3 weeks
Description: as §1, with “plants).” for “plants). Tables B1 to B11 below, show the effects of selected compounds of the general formula (I) according to Table 1 on various harmful plants using an application rate corresponding to 1280 g/ha obtained by the experimental procedure mentioned above.”
as §7

Veronica persica (VERPE) [24] = assay: Herbicidal post-emergence action, 320 g/ha, VERPE; details: visual grading after ca. 3 weeks
Description: as §1, with “plants).” for “plants). Tables B1 to B11 below, show the effects of selected compounds of the general formula (I) according to Table 1 on various harmful plants using an application rate corresponding to 1280 g/ha obtained by the experimental procedure mentioned above.”
as §7

Structure (SMILES) | herbicidal effect STEME (Stellaria media (STEME) [2]) [%] | herbicidal effect STEME (Stellaria media (STEME) [4]) [%] | herbicidal effect ABUTH [5] [%] | herbicidal effect AMARE [6] [%] | herbicidal effect MATIN [7] [%] | herbicidal effect ABUTH [8] [%] | herbicidal effect LOLRI (Lolium rigidum (LOLRI) [9]) [%] | herbicidal effect AMARE [10] [%] | herbicidal effect MATIN [11] [%] | herbicidal effect LOLRI (Lolium rigidum (LOLRI) [12]) [%] | herbicidal effect STEME (Stellaria media (STEME) [13]) [%] | herbicidal effect LOLRI (Lolium rigidum (LOLRI) [14]) [%] | herbicidal effect KCHSC (Kochia scoparia (KCHSC) [15]) [%] | herbicidal effect AMARE [16] [%] | herbicidal effect VERPE (Veronica persica (VERPE) [17]) [%] | herbicidal effect KCHSC (Kochia scoparia (KCHSC) [19]) [%] | herbicidal effect SETVI (Setaria viridis (SETVI) [21]) [%] | other results
Cc1nn(C)c(=O)c(Oc2ccccc2C(C)C)c1O [Example I-022] | 100 | 100 | 100 | 90 | 90 | 90 | 100 | 90 | 90 | 100 | 90 | 90 | 90 | 90 |  |  |  | herbicidal effect ECHCG [1]: 90%; herbicidal effect POAAN (Poa annua (POAAN)): 90%; herbicidal effect STEME (Stellaria media (STEME) [3]): 100%
CC(=O)Oc1c(C)nn(C)c(=O)c1Oc1ccccc1OC(F)(F)F [Example I-029] | 100 | 100 | 100 | 90 | 100 | 90 | 100 | 90 | 90 | 90 | 90 | 90 | 90 | 100 | 90 | 90 |  | herbicidal effect ECHCG [1]: 90%; herbicidal effect ABUTH [18]: 90%
CCOC(=O)Oc1c(C)nn(C)c(=O)c1Oc1ccc(Cl)cc1C1CC1 [Example I-036] | 100 | 90 | 90 | 100 | 100 | 90 | 90 | 90 | 90 |  |  | 90 |  |  | 90 | 90 | 90 | herbicidal effect KCHSC (Kochia scoparia (KCHSC) [20]): 90%
Cc1nn(C)c(=O)c(Oc2cc(Cl)ccc2C2CC2)c1O [Example I-071] | 90 | 100 | 100 | 100 | 100 | 100 | 100 | 90 |  |  | 90 |  |  |  | 90 |  |  | herbicidal effect SETVI (Setaria viridis (SETVI) [22]): 90%; herbicidal effect ABUTH [18]: 90%
CCOC(=O)Oc1c(C)nn(C)c(=O)c1Oc1cc(F)ccc1Br [Example I-088] | 90 | 90 |  | 100 | 100 |  | 100 | 90 | 90 | 90 |  | 90 |  | 100 |  |  | 90 | 
CCOC(=O)Oc1c(C)nn(C)c(=O)c1Oc1cc(F)c(F)cc1Br [Example I-093] |  | 90 | 90 | 100 | 90 |  |  |  | 90 |  |  |  | 90 | 90 | 90 |  | 90 | herbicidal effect MATIN [23]: 90%
Cc1nn(C)c(=O)c(Oc2cc(F)c(F)cc2C2CC2)c1O [Example I-101] | 100 | 100 | 100 | 100 | 100 | 90 | 100 | 90 | 90 | 90 | 90 | 90 | 100 | 100 | 100 | 90 |  | herbicidal effect VERPE (Veronica persica (VERPE) [24]): 90%; herbicidal effect SETVI (Setaria viridis (SETVI) [22]): 90%
